The results in this text go back to ChEMBL document CHEMBL1201862, “PubChem BioAssay data set” (2004).

A short description of experiment [1]: inhibitors of intracellular T. cruzi replication, confirmation, NIH3T3 host cells, beta-gal luminescence (AID 2044).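 Note: intracellular parasites grown in NIH/3T3 mouse fibroblasts as host cells; luminescent beta-galactosidase reporter signal from transgenic T. cruzi replicating inside host cells; inhibitors lower the luminescence signal.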 Type of experiment: functional, cell-based.
Experiment [2] can be described thus: cytotoxicity toward NIH3T3 fibroblasts, dose response, counter-screen, cell-based, ATP luminescence, mouse fibroblasts (AID 2010).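 Note: cells exposed to compound for about 90 hours before reading.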 Type of experiment: functional. A general note: The purpose of a counterscreen is to sort out artefacts and off-target activity.
The target of experiment [3] is T1, Short transient receptor potential channel 4 (Mus musculus, UniProt Q9QUQ5).
T1 sequence (Q9QUQ5 whole entry): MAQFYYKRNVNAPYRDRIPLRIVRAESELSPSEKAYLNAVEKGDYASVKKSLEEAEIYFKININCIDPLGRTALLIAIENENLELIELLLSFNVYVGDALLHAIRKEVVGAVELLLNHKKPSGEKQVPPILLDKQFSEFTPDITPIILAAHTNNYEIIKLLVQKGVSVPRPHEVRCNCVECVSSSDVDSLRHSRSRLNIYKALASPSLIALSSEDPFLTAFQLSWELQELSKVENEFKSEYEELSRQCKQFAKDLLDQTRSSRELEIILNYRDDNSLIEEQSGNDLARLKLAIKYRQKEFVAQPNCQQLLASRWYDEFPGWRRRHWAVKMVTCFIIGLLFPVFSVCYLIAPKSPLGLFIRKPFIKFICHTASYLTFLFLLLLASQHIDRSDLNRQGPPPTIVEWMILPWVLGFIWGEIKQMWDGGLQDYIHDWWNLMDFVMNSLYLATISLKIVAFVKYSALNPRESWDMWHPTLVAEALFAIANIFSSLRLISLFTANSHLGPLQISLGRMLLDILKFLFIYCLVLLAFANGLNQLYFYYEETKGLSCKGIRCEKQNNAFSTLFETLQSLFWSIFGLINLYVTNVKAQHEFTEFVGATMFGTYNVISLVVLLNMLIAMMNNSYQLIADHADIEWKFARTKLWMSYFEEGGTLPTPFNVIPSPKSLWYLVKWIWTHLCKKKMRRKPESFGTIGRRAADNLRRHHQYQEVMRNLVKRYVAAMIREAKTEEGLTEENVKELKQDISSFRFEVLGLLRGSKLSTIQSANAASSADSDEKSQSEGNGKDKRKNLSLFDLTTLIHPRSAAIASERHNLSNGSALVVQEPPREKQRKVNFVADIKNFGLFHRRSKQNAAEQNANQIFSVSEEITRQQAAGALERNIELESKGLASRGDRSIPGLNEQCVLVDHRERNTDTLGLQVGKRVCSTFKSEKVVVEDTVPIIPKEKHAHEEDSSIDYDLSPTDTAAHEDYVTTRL
Briefly: mouse TRPC4 channel inhibitors, dose response, cell-based, HEK293 TRPC4/mu-opioid, Fluo-4 calcium (AID 434942).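 Note: potency of inhibitors blocking the TRPC4 calcium response.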 It counts as functional.

Another experiment has as its target T2, Aminopeptidase N (Plasmodium falciparum FcB1/Columbia, UniProt O96935).
T2 sequence (O96935 whole entry): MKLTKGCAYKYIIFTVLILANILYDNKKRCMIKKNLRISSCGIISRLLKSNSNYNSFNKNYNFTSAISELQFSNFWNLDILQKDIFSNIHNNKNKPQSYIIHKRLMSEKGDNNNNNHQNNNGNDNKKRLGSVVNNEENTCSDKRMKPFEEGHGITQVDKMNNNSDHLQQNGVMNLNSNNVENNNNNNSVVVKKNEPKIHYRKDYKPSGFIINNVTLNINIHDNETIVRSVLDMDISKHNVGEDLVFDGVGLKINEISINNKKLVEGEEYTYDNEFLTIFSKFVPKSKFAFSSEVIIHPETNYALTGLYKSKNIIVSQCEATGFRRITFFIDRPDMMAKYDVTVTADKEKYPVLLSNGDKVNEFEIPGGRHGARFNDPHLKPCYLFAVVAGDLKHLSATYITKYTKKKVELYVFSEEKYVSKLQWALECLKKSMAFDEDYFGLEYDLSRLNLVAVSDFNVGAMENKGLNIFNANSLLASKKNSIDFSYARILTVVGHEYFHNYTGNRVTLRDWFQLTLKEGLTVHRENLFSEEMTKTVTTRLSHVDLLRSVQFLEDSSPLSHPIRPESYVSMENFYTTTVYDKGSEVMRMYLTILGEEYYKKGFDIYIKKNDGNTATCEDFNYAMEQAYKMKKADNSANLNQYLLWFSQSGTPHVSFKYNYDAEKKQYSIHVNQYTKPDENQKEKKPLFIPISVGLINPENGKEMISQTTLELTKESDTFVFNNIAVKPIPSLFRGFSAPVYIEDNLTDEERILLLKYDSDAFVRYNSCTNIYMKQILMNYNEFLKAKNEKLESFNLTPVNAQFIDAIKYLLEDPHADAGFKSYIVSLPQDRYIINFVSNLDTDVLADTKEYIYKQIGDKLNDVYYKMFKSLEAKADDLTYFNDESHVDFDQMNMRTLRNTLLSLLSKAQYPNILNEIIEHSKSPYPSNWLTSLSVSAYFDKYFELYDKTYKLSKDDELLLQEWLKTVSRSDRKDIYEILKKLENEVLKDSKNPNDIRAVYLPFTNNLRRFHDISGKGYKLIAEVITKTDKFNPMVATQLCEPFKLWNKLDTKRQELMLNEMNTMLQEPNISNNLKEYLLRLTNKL
As to the kind of experiment: P. falciparum M1AAP inhibitors, biochemical, fluorogenic H-Leu-NHMec substrate, 1536-well (AID 1445). Details: species or system Plasmodium falciparum 3D7, 3D7.

The next experiment deals with Beta-galactosidase (Escherichia coli, UniProt Q8VNN2). Briefly: beta-galactosidase enzyme inhibitors and activators, dose response, artefact control for CCR6 antagonist project, biochemical, E. coli enzyme, set 3 (AID 504712). It counts as functional.
Beta-galactosidase, sequence (Q8VNN2 whole entry): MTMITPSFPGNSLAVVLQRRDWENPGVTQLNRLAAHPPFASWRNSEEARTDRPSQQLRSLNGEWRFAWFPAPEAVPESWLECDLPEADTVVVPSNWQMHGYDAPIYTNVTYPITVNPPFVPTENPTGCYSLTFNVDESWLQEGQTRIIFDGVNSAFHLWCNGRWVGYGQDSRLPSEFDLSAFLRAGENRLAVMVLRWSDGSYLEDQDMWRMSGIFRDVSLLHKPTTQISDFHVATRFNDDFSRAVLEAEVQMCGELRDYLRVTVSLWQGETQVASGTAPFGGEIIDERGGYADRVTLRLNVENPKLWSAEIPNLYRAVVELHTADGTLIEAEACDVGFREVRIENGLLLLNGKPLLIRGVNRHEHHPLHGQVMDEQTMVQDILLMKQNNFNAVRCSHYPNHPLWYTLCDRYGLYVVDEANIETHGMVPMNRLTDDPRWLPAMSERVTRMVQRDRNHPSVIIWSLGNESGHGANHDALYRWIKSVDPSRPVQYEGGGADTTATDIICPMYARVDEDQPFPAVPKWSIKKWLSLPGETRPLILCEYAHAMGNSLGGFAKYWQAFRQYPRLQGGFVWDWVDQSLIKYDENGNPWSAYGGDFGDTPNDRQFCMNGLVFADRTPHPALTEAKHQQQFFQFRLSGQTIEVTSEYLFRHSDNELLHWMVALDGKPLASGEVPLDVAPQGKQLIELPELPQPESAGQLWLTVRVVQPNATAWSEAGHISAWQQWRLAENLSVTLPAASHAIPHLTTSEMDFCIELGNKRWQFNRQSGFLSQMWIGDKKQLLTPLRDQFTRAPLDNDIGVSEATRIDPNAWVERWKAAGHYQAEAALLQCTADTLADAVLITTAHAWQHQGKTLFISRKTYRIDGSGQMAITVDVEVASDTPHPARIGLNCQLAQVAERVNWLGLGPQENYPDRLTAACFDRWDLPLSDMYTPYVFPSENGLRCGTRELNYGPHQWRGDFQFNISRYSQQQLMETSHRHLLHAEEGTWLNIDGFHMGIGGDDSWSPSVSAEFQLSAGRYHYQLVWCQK
The target in experiment [4] is Peroxisome proliferator-activated receptor gamma/Nuclear receptor coactivator 1 (Homo sapiens, UniProt P37231). As to the kind of experiment: TR-FRET dose response biochemical High Throughput Screening assay for agonists of the steroid receptor coactivator 1 (SRC-1) recruitment by the peroxisome proliferator-activated receptor gamma (PPAR gamma): non-selective agonists. [Related pubchem assays (depositor defined):AID1300, AID1808, AID504735, AID631]. Type of experiment: protein assay. A general note: Time-resolved FRET reads energy transfer from a long-lived donor to a nearby acceptor.
Peroxisome proliferator-activated receptor gamma/Nuclear receptor coactivator 1, sequence (P37231 whole entry): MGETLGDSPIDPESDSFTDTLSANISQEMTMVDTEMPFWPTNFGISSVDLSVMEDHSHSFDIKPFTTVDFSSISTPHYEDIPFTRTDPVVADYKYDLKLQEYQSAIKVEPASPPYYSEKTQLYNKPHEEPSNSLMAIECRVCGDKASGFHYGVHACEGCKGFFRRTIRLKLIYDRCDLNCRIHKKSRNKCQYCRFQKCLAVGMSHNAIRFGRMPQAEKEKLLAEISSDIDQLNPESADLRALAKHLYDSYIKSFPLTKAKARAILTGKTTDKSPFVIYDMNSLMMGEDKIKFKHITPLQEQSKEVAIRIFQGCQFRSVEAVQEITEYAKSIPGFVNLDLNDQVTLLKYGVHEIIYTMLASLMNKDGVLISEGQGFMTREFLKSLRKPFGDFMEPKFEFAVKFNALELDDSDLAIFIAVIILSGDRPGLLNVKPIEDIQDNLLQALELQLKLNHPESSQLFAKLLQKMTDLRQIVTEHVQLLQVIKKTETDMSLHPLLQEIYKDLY
Peroxisome proliferator-activated receptor gamma/Nuclear receptor coactivator 1, sequence (Q15788 whole entry, further chain): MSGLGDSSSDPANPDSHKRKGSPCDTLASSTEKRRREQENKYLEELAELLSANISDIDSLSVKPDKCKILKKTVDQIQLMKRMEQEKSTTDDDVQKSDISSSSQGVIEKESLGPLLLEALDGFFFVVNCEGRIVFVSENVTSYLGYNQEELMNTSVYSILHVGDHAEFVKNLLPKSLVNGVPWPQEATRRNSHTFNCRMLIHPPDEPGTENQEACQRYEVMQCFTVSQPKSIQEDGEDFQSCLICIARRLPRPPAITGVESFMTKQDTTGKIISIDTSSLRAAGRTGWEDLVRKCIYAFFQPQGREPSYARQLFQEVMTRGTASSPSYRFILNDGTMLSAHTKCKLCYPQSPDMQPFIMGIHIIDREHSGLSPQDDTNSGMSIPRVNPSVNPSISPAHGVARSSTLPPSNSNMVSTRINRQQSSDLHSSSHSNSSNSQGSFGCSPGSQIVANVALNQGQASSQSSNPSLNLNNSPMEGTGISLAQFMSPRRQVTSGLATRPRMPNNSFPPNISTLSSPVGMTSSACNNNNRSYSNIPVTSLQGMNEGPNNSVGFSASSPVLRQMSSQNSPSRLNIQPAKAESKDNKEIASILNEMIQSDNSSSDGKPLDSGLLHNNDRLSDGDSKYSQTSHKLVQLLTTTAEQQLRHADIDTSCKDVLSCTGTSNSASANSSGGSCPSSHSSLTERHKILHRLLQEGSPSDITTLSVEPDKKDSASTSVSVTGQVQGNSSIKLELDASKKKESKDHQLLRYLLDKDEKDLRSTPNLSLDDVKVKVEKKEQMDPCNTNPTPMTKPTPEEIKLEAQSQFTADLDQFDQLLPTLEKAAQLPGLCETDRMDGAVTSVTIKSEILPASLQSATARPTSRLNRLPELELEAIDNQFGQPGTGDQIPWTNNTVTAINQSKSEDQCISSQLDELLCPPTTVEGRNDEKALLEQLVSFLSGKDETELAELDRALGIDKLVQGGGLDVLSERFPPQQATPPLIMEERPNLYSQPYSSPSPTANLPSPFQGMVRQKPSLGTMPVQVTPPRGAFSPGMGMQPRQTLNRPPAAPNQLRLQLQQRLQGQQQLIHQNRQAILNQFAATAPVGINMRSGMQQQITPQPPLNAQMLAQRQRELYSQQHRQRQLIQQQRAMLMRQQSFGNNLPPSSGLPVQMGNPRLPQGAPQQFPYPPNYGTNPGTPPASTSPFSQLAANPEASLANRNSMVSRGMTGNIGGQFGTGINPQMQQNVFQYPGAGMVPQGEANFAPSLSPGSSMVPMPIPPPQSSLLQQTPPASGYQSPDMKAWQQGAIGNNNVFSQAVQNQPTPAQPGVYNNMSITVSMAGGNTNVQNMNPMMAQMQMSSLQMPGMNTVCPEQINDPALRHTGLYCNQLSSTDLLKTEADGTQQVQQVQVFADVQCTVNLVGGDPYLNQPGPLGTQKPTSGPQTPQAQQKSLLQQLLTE

Experiment [5] concerns the target Peroxisome proliferator-activated receptor gamma/Nuclear receptor coactivator 3 (Homo sapiens, UniProt P37231). Briefly: TR-FRET dose response biochemical High Throughput Screening assay for agonists of the steroid receptor coactivator 3 (SRC-3) recruitment by the peroxisome proliferator-activated receptor gamma (PPAR gamma): non-selective agonists. [Related pubchem assays: 1301 (Confirmation screen.), 1048 (Primary screen.)]. It counts as functional.

Experiment [6] addresses Peroxisome proliferator-activated receptor gamma/Nuclear receptor coactivator 2 (Homo sapiens, UniProt P37231). Briefly: TR-FRET dose response biochemical High Throughput Screening assay for agonists of the steroid receptor coactivator 2 (SRC-2) recruitment by the peroxisome proliferator-activated receptor gamma (PPAR gamma): non-selective agonists. [Related pubchem assays: 1297, 1032 ]. It counts as functional.

The target of another experiment is Cytochrome P450 2C19 (Homo sapiens, UniProt P33261). Briefly: Cytochrome panel assay with activity outcomes. Panel member name: p450-cyp2c19 Compounds with AC50 equal or less than 10 uM are considered active. Type of experiment: functional. As to conditions: read-out: AC50.
For the next experiment, the target named is Cytochrome P450 2D6 (Homo sapiens, UniProt P10635).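 Note: CYP2D6 member of a cytochrome P450 panel assay.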
Another experiment has as its target Cytochrome P450 3A4 (Homo sapiens, UniProt P08684).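 Note: CYP3A4 tested as one member of a cytochrome P450 panel screen.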
The target in experiment [7] is T1, Short transient receptor potential channel 4. Briefly: mouse TRPC4 channel activators, dose response, cell-based, HEK293 TRPC4/mu-opioid, Fluo-4 calcium (AID 434937). It counts as functional.
In the next experiment the target is Genome polyprotein (dengue virus type 2, UniProt P29990). As to the kind of experiment: Dengue-2 NS5 methyltransferase inhibitors, primary screen, biochemical, confirmation dose response (AID 588689). Type of experiment: functional.
The target in the next experiment is T3, Cytochrome P450 1A2 (Homo sapiens, UniProt P05177).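 Note: PubChem cytochrome P450 panel assay, CYP1A2 panel member.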
T3 sequence (P05177 whole entry): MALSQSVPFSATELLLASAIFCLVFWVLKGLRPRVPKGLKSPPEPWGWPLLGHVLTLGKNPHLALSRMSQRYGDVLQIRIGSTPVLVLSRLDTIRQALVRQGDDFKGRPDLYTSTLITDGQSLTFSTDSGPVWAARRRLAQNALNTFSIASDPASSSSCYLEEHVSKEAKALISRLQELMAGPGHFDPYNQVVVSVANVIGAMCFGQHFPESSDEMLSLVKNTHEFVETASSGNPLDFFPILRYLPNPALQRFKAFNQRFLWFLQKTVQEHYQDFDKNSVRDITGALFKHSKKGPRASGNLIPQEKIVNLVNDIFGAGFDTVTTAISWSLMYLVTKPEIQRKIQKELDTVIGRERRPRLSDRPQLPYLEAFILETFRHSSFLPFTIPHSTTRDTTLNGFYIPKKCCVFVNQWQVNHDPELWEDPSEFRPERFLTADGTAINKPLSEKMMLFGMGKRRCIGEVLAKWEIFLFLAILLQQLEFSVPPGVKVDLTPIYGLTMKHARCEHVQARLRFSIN

In another experiment the target is Cytochrome P450 2C9 (Homo sapiens, UniProt P11712).
Experiment [8] in a line: A Cell Based Secondary Assay To Explore Cytotoxicity of Compounds that Sensitize Mycobacterium Tuberculosis to Beta-Lactam Antibiotics. Type of experiment: functional.

The EC50 is the concentration giving half of the maximal effect. For orientation: IC50 means the concentration needed to halve the response being measured. In general, AC50 refers to the concentration giving half of the maximal activity seen. For orientation: CC50 means the concentration giving 50% cytotoxicity.

Active and inactive are the calls of the source.

Peroxisome proliferator-activated receptor gamma/Nuclear receptor coactivator 2, sequence (P37231 whole entry): as the sequence (P37231 whole entry) above
Peroxisome proliferator-activated receptor gamma/Nuclear receptor coactivator 2, sequence (Q15596 whole entry, further chain): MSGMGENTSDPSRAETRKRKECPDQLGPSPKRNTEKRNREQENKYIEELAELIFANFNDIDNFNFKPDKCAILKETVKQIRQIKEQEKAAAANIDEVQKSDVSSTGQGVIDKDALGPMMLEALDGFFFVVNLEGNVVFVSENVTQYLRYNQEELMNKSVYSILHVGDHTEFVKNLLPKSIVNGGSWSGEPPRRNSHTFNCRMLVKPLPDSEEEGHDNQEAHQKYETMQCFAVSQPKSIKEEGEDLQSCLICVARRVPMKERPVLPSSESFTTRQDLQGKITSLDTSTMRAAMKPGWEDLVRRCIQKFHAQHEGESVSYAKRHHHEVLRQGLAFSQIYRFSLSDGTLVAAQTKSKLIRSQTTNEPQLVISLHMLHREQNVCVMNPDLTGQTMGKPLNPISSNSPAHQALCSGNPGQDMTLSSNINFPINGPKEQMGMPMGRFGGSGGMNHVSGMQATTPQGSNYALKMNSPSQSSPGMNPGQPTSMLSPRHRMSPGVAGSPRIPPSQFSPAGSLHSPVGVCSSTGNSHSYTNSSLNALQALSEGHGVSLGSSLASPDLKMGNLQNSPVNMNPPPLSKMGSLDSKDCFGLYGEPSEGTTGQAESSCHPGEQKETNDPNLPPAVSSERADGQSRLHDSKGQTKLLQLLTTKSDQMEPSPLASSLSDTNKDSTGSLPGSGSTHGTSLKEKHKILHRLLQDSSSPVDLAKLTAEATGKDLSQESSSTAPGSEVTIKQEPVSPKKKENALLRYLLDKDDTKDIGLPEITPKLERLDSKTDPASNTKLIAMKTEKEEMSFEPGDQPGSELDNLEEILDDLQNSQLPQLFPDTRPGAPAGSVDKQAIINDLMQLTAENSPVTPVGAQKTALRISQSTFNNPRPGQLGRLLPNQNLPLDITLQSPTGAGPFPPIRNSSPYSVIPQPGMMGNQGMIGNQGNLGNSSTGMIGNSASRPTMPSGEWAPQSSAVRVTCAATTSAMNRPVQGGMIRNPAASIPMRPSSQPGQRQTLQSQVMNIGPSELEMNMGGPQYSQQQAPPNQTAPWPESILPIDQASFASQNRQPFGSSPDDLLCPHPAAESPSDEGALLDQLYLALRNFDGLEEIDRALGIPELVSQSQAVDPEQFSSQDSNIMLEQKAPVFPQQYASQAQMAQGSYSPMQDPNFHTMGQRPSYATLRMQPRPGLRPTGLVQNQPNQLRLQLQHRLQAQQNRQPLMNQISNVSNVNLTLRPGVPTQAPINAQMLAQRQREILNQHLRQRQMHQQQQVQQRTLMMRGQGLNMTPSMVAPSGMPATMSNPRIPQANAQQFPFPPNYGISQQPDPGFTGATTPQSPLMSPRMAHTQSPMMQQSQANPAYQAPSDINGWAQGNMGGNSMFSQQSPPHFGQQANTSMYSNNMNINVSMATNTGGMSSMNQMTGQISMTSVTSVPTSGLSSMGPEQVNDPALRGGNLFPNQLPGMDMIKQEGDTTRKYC

As to `CCCCC(CC)C(=O)Nc1ncc([N+](=O)[O-])s1` (stereo not drawn), the concentration for a half-maximal effect (EC50) in [1] is 1.29 µM (active); in experiment [2] it was > 60 µM (not active); in experiment [3] it was 7.5 µM (active).

`O=C(NCc1cccc(F)c1)C1CCN(C(=O)c2sccc2-n2cccc2)CC1`: the IC50 on Aminopeptidase N was 100 µM (active).

Take `O=C1C=CC(=O)N1`: at Beta-galactosidase, the IC50 was > 66.6 µM (inactive).

On to `O=C(NCc1cccs1)C1CCN(S(=O)(=O)c2ccc(Cl)cc2)CC1`, for which the IC50 at Aminopeptidase N was 89.3 µM (active).

With `COc1ccc2cc(C#N)c(SCC(=O)NNC(=O)Cc3ccccc3)nc2c1`, the EC50 is 10.7 µM (inactive) in experiment [4], > 79.4 µM (not active) in experiment [5] and 11.1 µM (not active) in experiment [6]. In addition, the AC50 on Cytochrome P450 2C19 is 0.0398 µM (inconclusive); at Cytochrome P450 2D6, 2.51 µM (inconclusive); at Cytochrome P450 3A4 it was 1.26 µM (inconclusive).

Consider `Oc1c(/C=N/Cc2ccncc2)sc2ccccc12`, for which the IC50 at Beta-galactosidase is > 66.6 µM (inactive).

As to `COc1ccc(C(CNC(=O)Cc2ccc3ccccc3c2)N(C)C)cc1` (stereo not drawn), the concentration giving a half-maximal response (EC50) is 0.0533 µM (active) in experiment [3] and 0.668 µM (active) in [7].

For the compound `CCn1c(=O)cc(SCC(=O)NCc2ccc(C)cc2)c2ccccc21`, the EC50 in experiment [4] is > 79.4 µM (inactive); in [5], > 79.4 µM (not active); in experiment [6] it was > 26.5 µM (not active).

Take `O=C1/C(=C/c2nc3ccccc3[nH]2)SC(=S)N1NS(=O)(=O)c1ccccc1`: the concentration for half-maximal inhibition (IC50) at Aminopeptidase N is 23.7 µM (active); at Genome polyprotein, 54.7 µM (active).

For the compound `c1ccc(Cn2c(CN3CCCC3)nc3ccccc32)cc1`, the half-maximal effective concentration (EC50) in [3] was 2.11 µM (active). The half-maximal activity concentration (AC50) was 14.1 µM (inconclusive) at Cytochrome P450 1A2 and 35.5 µM (inconclusive) on Cytochrome P450 2C9.

Consider `NC(=O)c1nsc(C(=O)N(Cc2ccccc2Cl)C(C(=O)NCC2CCCO2)c2ccc(O)cc2)c1N` (stereo not drawn), for which the 50% effective concentration (EC50) in experiment [3] was 5.96 µM (active).

Turning to `O=C(CNS(=O)(=O)c1ccc2ccccc2c1)OCC(=O)c1ccc(Br)s1`, the EC50 was 8.72 µM (active) in experiment [4], 36.5 µM (not active) in experiment [5] and 4.58 µM (active) in [6].

For `O=C(Cc1cc(=O)oc2cc(O)ccc12)NCC1CCC(C(=O)O)CC1` (stereo not drawn), the half-inhibitory concentration (IC50) at Aminopeptidase N was 65.9 µM (active).

For the compound `CC1=NN(c2ccccc2)C(=O)C1/C=N/c1ccccc1O` (stereo not drawn), at Aminopeptidase N, the IC50 was 12.8 µM (active). Besides, the CC50 in experiment [8] is > 40 µM (active).

For `Cc1ccc2nc(NC(=S)NC(=O)c3ccco3)sc2c1`, the EC50 in [4] is 43 µM (inactive); in experiment [5], > 79.4 µM (not active); in [6], 51.8 µM (not active).
